Read-outs that look alike come from different tables or passages of the source.
Key:
rat TRPV6 (rTRPV6) [1] = biological target: T1, rat TRPV6 (rTRPV6) (Rattus norvegicus, UniProt Q9R186); settings: (Clapham et al.); cited from earlier work
T1 construct: expressed in transfected cells
T1 sequence (Q9R186 1-767): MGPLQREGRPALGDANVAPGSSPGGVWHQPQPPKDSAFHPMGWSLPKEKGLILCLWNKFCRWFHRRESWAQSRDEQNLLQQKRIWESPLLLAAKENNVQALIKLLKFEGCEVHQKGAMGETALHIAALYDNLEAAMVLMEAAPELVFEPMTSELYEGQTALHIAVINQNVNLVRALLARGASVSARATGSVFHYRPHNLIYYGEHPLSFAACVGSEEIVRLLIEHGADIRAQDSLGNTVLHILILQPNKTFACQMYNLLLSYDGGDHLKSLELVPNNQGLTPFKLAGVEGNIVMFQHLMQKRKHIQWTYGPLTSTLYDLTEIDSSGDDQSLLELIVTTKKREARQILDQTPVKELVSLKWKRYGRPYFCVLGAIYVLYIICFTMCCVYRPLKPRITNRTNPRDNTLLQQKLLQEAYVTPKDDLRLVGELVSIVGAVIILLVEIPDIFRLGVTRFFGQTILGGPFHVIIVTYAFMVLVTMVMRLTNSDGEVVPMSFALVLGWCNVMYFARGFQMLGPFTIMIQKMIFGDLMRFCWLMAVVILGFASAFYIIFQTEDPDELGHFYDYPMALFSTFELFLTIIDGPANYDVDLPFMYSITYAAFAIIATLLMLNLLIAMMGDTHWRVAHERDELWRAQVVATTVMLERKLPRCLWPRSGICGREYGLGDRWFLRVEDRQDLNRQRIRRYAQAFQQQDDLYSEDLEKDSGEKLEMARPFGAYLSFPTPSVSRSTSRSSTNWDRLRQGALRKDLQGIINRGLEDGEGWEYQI

TRPV1 (hTRPV1) = biological target: T2, TRPV1 (hTRPV1) (Homo sapiens, UniProt Q8NER1); test: Selectivity patch clamp, TRPV1 channel; assay type: cell-based; settings: fold selective for TRPV3 over TRPV1; tested up to 30 μM, IC50 estimated
T2 construct: expressed in transfected cells
Source text: (§1) Data is presented as fold selective.

human ERG (hERG) = human ERG (hERG) (Homo sapiens, UniProt Q12809); test: Selectivity patch clamp, hERG channel; settings: fold selective for TRPV3 over hERG; tested up to 30 μM, IC50 estimated
Description: Compounds of interest were tested against these channels at concentrations up to 30 μM, and the resulting data were used to estimate IC50. Data is presented as fold selective.

[2] = system: Male Holtzman rats, thermal injury; settings: Table B comparators; based on our data as well as data available in the literature; cited from earlier work
[3] = system: rats, CFA injected hindpaw; settings: Table B comparators; based on our data as well as data available in the literature; cited from earlier work
[4] = system: Male Holtzman rats, thermal injury; test: Thermal injury model, thermal escape latency (Hargreaves); assay type: in vivo, rat
Description: The thermal injury model was used to evaluate the effectiveness of an exemplary TRPV3 inhibitor in the treatment of nociceptive pain. FIG. 1 provides a schematic representation of the protocol used to evaluate a TRPV3 inhibitor in the thermal injury model.
Briefly, the following protocol was followed. Male Holtzman rats (approximately 300 grams) were tested on thermal escape using a Hargreaves type apparatus. Under light anesthesia, a thermal injury (52° C. for 45 seconds) was applied to one heel. The animals were tested for thermal escape latency of the injured and uninjured paw before and at 30, 60, 80 and 120 minutes after injury. Drug (a TRPV3 inhibitor or morphine) or vehicle (0.5% methylcellulose) was administered after the baseline measurement and approximately 15-20 minutes prior to the thermal injury. In addition to the escape latency measurement, behavioral observations were made throughout the experiment.

rat TRPV6 (rTRPV6) [5] = biological target: T1, rat TRPV6 (rTRPV6); test: Selectivity patch clamp, TRPV6 channel; assay type: cell-based; settings: fold selective for TRPV3 over TRPV6; tested up to 30 μM, IC50 estimated
Source text: as §1

NaV1.2 = biological target: T3, NaV1.2 (Homo sapiens, UniProt Q99250); test: Selectivity patch clamp, NaV1.2 channel; assay type: cell-based; settings: fold selective for TRPV3 over NaV1.2; tested up to 30 μM, IC50 estimated
T3 construct: expressed in transfected cells
Source text: as §1

[6] = system: Male Holtzmann rats, intraplantar formalin; test: Formalin model following intrathecal delivery; assay type: in vivo, rat; settings: 10 mg/kg intrathecally
Source text: As outlined above, the formalin model involves injection of a formalin solution intradermally or intraperitoneally. Injection of formalin solution invokes a biphasic response, and thus provides a model for both nociceptive and inflammatory pain. The formalin model was used to evaluate the effectiveness of an exemplary TRPV3 inhibitor in the treatment of pain following intrathecal (IT) delivery. Efficacy following intrathecal delivery provides evidence that the compound can act centrally.
Briefly, the following protocol was followed. Male Holtzmann rats received intraplantar injections of 50 μL of 2% formalin. Paw flinching was detected by an automated sensor detecting movement of a small metal band placed on the injected hind paw. Drug or vehicle was administered intrathecally approximately 15 minutes prior to the injection of formalin. The animal's response to injection of the irritant was measured by counting flinches per minutes during the Early Phase and during the Late Phase.
Flinches per minute, a measure of the pain and discomfort experienced by the animal, was measured following formalin injection in animals receiving either 10 mg/kg TRPV3 inhibitor (Compound 64) or a vehicle control (0.5% DCC). The TRPV3 inhibitor was formulated in 20% DMSO/20% cremaphore/10% cyclodextrin (DCC) and administered intrathecally. […]

[7] = system: Male Holtzman rats, substance-P induced thermal hyperalgesia; test: Intrathecal substance-P induced thermal hyperalgesia; assay type: in vivo, rat; settings: 200 mg/kg IP, 30 minutes prior to substance-P; p<0.05 between groups
Description: The efficacy of a TRPV3 antagonist in diminishing hyperalgesia was assessed in a model of intrathecal administered substance-P induced thermal hyperalgesia. Male Holtzman rats were used in this study and thermal escape was measured using a Hargreaves apparatus. Thermal escape was measured pre-treatment (baseline), and at intervals following intrathecal administration of substance-P (tested at 15, 30, 45, and 60 minutes post substance-P administration). Control animals were administered vehicle intraperitoneally after baseline assessment and 30 minutes prior to substance P administration. Experimental animals receiving a TRPV3 inhibitor (compound 64) were administered compound intraperitoneally after baseline assessment and 30 minutes prior to substance P administration.
Substance-P induced rats were surgically prepared with a lumbar intrathecal catheter using clean surgical technique while under inhalation anesthesia (isoflurane). The catheter was externalized at the back of the head to minimize handling of the animal during drug delivery. […]
Briefly, baseline mean paw latencies were determined prior to substance-P administration. […] After injection of substance P intrathecally via the previously placed catheter (counted as time=0), measurements of escape latency were taken at 15, 30, 45, and 60 minutes post-substance-P administration. […]

[8] = system: rats, CFA injected hindpaw; test: Complete Freund's Adjuvant (CFA) model of inflammatory pain, latency to withdrawal; assay type: in vivo, rat; settings: for Effect relative to diclofenac / TRPV1 inhibitor: highest dose tested, 200 mg/kg; for Thermal hyperalgesia (latency to withdrawal): intraperitoneal, tested 45 minutes later
Description: As outlined above, the Complete Freund's Adjuvant (CFA) model is a model of inflammatory pain. As such, it may be used to evaluate effectiveness in relieving pain caused by inflammation, for example, pain due to arthritis and other inflammatory conditions. FIG. 9 provides a schematic representation of the protocol used to evaluate a TRPV3 inhibitor in the CFA model.
Naive rats were pretested for sensitivity to a heat stimulus in the Hargreaves apparatus. The next day, 100 μL of complete Freund's adjuvant (CFA) was injected into the plantar surface of the right hindpaw. Two days later, in the morning, the rats were again pretested. In the afternoon, rats were injected with either vehicle control (methylcellulose or PEG-400) or with drug (TRPV3 inhibitor 64, TRPV3 inhibitor 15, TRPV1 inhibitor A-425619, or the non-steroidal anti-inflammatory diclofenac). Drugs or vehicle were injected intraperitoneally, and 45 minutes later rats were tested for hyperalgesia by applying the heat source to the CFA injected and uninjected hindpaw and measuring latency to withdrawal.

[9] = Plasma levels by HPLC/MS/MS after administration; assay type: in vivo; settings: rat
Description: The plasma levels of TRPV3 inhibitor 15 were determined via HPLC/MS/MS following administration to male Sprague-Dawley rats. Rats were administered a single intravenous bolus dose of 1.2 mg/kg, an intraperitoneal dose of a suspension of 30 or 60 mg/kg, an oral dose of a solution of 8.6 mg/kg, or an oral dose of a suspension of 6.9 mg/kg.
For intravenous administration, TRPV3 inhibitor 15 solutions were formulated in Solutol at a target concentration of 0.25 mg/mL. The solution was administered as a rapid bolus (approximately 2-3 seconds) via the tail vein of conscious rats or via jugular vein catheter in anesthetized rats. The solution was administered at a dose volume of 4 mL/kg.
For intraperitoneal administration, TRPV3 inhibitor 15 was formulated as a uniform suspension in CMC (carboxymethylcellulose) at a target concentration of 5 mg/mL. The suspension was administered at a dose volume of 10 mL/kg.
For oral administration, TRPV3 inhibitor 15 was formulated as either a uniform suspension in CMC or as a solution in Solutol. The target concentration was 1 mg/mL. Oral administration was by gavage at a dose volume of 10 mL/kg to conscious, fasted, male Sprague-Dawley rats.

T2 sequence (Q8NER1 whole entry): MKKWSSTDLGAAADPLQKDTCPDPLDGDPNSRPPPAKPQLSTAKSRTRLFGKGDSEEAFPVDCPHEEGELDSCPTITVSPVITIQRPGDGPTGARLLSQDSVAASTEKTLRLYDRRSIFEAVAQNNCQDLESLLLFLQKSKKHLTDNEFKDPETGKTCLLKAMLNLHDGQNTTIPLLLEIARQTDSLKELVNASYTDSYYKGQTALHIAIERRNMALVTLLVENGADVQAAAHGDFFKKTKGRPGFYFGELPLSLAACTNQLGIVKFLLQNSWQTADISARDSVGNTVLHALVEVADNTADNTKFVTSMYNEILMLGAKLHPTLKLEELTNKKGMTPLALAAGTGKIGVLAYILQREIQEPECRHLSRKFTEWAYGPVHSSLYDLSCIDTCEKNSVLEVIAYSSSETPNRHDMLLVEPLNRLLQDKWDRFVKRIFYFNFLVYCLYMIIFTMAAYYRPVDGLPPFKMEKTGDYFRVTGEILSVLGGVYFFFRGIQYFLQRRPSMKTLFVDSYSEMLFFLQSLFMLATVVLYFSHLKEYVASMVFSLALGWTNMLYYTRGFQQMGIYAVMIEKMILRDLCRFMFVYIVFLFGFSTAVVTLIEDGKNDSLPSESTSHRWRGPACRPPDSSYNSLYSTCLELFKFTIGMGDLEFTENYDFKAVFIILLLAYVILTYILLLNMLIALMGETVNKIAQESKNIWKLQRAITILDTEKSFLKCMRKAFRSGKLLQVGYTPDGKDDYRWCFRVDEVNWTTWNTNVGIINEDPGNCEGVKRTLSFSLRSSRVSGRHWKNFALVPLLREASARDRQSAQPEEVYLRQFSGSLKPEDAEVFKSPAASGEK
T3 sequence (Q99250 whole entry): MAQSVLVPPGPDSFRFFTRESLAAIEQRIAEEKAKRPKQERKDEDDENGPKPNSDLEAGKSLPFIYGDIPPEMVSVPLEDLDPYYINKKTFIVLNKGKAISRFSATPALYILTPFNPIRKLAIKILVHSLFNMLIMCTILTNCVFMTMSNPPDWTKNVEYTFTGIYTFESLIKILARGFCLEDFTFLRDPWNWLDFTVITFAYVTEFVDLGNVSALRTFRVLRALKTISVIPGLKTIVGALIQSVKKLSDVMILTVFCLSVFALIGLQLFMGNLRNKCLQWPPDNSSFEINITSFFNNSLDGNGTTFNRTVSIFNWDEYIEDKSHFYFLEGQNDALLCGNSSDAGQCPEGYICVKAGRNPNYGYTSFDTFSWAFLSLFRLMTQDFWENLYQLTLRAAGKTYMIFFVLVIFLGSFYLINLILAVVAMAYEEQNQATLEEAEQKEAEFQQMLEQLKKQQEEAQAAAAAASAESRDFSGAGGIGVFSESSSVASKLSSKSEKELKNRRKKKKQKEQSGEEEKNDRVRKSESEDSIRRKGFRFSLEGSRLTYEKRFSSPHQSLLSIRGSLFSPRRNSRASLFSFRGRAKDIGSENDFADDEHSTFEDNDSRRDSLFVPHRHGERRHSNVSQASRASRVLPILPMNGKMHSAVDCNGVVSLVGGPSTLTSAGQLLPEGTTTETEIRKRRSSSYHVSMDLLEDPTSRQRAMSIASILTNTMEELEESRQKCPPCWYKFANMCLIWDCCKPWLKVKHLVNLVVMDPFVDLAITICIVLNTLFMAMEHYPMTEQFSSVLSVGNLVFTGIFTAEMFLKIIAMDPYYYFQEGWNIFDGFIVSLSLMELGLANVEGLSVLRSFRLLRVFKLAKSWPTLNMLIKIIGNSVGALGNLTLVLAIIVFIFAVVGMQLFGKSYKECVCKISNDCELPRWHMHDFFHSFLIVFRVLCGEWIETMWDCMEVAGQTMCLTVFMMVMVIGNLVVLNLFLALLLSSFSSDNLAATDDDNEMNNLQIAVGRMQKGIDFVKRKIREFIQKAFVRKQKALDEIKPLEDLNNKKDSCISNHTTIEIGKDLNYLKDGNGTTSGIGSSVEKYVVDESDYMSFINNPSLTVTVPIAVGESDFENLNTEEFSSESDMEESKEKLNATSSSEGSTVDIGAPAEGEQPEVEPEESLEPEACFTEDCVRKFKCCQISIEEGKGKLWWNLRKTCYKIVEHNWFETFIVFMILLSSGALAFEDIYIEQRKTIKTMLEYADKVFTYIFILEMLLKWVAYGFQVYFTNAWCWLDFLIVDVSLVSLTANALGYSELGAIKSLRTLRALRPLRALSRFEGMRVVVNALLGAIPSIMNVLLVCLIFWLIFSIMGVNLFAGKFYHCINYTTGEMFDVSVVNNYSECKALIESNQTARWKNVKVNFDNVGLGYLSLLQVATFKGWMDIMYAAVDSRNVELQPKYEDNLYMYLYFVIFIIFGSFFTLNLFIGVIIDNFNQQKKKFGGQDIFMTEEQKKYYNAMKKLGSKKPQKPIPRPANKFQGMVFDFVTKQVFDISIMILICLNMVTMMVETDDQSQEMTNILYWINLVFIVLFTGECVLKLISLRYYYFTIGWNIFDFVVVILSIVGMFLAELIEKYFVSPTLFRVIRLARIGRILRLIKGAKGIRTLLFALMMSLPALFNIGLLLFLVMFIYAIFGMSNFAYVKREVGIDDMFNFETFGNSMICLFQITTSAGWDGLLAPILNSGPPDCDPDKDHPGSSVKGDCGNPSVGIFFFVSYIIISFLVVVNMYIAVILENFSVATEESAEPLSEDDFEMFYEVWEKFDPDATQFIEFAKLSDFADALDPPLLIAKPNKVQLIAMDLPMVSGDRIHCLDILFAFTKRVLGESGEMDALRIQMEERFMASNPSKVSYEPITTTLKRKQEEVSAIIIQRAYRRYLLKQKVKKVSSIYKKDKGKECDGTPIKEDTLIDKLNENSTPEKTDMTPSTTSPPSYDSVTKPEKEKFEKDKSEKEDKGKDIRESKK
Chain of human ERG (hERG) (Q12809 whole entry): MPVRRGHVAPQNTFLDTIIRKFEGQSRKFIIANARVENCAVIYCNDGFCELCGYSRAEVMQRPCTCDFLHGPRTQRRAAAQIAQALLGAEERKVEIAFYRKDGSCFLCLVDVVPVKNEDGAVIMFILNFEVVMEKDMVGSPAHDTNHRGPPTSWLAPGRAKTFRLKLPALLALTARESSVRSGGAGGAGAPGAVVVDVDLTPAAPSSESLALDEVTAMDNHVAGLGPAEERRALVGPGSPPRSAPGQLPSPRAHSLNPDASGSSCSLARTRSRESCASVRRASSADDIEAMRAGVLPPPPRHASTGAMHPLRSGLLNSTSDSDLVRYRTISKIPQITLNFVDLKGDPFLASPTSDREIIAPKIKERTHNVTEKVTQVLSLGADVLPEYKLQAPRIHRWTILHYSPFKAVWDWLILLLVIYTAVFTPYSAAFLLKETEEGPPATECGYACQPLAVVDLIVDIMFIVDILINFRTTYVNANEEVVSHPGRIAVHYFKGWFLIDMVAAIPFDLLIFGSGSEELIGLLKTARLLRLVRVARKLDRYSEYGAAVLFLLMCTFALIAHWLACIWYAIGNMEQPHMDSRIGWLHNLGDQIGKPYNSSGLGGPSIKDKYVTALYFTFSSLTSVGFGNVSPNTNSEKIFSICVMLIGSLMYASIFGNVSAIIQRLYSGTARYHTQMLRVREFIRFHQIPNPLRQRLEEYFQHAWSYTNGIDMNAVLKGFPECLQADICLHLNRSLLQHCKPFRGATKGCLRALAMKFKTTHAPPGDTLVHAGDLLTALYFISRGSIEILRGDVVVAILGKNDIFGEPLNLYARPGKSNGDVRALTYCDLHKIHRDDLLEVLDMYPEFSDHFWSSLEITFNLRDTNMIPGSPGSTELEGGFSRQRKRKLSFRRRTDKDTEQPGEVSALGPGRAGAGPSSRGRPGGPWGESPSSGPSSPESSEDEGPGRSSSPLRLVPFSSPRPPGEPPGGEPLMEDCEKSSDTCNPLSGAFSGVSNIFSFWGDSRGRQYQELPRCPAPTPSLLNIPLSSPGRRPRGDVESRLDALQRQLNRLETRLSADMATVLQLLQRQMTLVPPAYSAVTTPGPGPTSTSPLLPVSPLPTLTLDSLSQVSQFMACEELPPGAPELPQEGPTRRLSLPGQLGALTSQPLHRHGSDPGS

N.N.N.N.N.N.N.N.N.N.N.N.N.N.[Cl-].[Cl-].[Cl-].[Cl-].[Cl-].[Cl-].[O-2].[O-2].[Ru+3].[Ru+3].[Ru+4] [Ruthenium Red]
TRPV3:TRPV6 fold selectivity (rat TRPV6 (rTRPV6) [1]): 10 fold | TRPV3:TRPV1 fold selectivity (TRPV1 (hTRPV1)): 3 fold selective | TRPV3:hERG fold selectivity (human ERG (hERG)): >40 fold

NCC1(CC(=O)O)CCCCC1 [Gabapentin]
Acute thermal injury [2]: Effective | CFA Model [3]: Ineffective

O=C(CSc1nc2ccccc2s1)N1CCCc2ccccc21 [Compound 64, 2-(Benzo[d]thiazol-2-ylthio)-1-(3,4-dihydroquinolin-1(2H)-yl)ethanone]
Escape latency in the injured paw ([4]; 200 mg/kg): comparable to that observed prior to injury | Escape latency in the uninjured paw ([4]; even at the highest concentrations administered (FIG. 3)): no effect on the uninjured paw | Escape latency in the injured paw ([4]; increasing concentrations of inhibitor vs methylcellulose control (FIG. 2)): significantly diminished pain | TRPV3:TRPV6 fold selectivity (rat TRPV6 (rTRPV6) [5]): >40 fold | TRPV3:NaV1.2 fold selectivity (NaV1.2): >40 fold | Flinches per minute ([6]; about 15 minutes prior to formalin, vs vehicle): substantially reduced the flinches per minute | Flinches per minute, Late Phase ([6]; Late Phase): statistically significant reduction | Thermal hyperalgesia (mean paw latency) [7]: reversed the hyperalgesia | TRPV3:TRPV1 fold selectivity (TRPV1 (hTRPV1)): >40 fold | Effect relative to diclofenac / TRPV1 inhibitor [8]: more potent than the effects of either the non-steroidal anti-inflammatory or the TRPV1 inhibitor | Pain sensitivity of inflamed paw ([8]; individual rats, FIG. 11): returns pain sensitivity to baseline levels | Thermal hyperalgesia (latency to withdrawal) [8]: reduced thermal hyperalgesia

Cc1cccc2c1N(C(=O)CSc1nc3ccccc3s1)CCC2 [Compound 46, 2-(Benzothiazol-2-ylsulfanyl)-1-(8-methyl-3,4-dihydro-2H-quinolin-1-yl)-ethanone]
TRPV3:TRPV1 fold selectivity (TRPV1 (hTRPV1)): >200 fold

Cc1cccc2c1N(C(=O)CSc1nc3cc(Cl)ccc3s1)CCC2 [Compound 15, 2-(5-Chlorobenzothiazol-2-ylsulfanyl)-1-(8-methyl-3,4-dihydro-2H-quinolin-1-yl)-ethanone]
TRPV3:TRPV6 fold selectivity (rat TRPV6 (rTRPV6) [5]): >1000 fold | TRPV3:NaV1.2 fold selectivity (NaV1.2): >1000 fold | TRPV3:TRPV1 fold selectivity (TRPV1 (hTRPV1)): >1000 fold | Effect relative to diclofenac / TRPV1 inhibitor [8]: more potent than the effects of the non-steroidal anti-inflammatory | Thermal hyperalgesia (latency to withdrawal) [8]: reduced thermal hyperalgesia | bioavailability ([9]; male, Sprague-Dawley, fasted rats, oral, solution or suspension, read-out: Estimated bioavailability): ~5% | half-life ([9]; male Sprague-Dawley rats, read-out: Estimated half-life (converted)): 1.6 h | clearance ([9]; male Sprague-Dawley rats, read-out: Estimated plasma clearance): 41 mL/min/kg | Vd ([9]; male Sprague-Dawley rats, read-out: Estimated volume of distribution): 5.51 L/kg

Source: patent US8916550B2, “Compounds for modulating TRPV3 function” (Hydra Biosciences, Inc., priority 2005, dated 2014)
